Results: US9796733B2, “Imidazo-pyrazine derivatives useful as soluble guanylate cyclase activators” (Merck Sharp & Dohme Corp., priority 2014, dated 2017)

Experiments:
[1] = system: Spontaneously hypertensive rats (SHR); assay: Acute efficacy in spontaneously hypertensive rats (SHR): telemetry blood pressure lowering after a single oral dose; type: in vivo, rat
How it was run: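 Values are the maximum peak fall in systolic pressure after one oral dose (mpk), computed hourly against baseline from a vehicle dose given the day before. Rats were conscious, male, spontaneously hypertensive, with femoral-aortic telemetry recording 30 s every 10 min, 14 days post-surgery.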

sGC α1/β1 heterodimer = molecular target: T1, sGC α1/β1 heterodimer (Homo sapiens, UniProt Q02108+Q02153); assay: Cell-based sGC functional assay (CASA assay): cGMP generation in CHO-K1/sGC cells, HTRF detection; conditions: for Emax: CHO-K1, percent activation relative to standard Compound A in CHO-K1/sGC cells, read-out: % Act.; for EC50: inflection point (IP) of cGMP generation in CHO-K1/sGC cells, 4P fit, activity expressed as percentage of Compound A
T1 construct: expressed in transfected cells; host or cells: CHO-K1 (clone #7, CHO-K1/sGC)
T1 sequence (Q02108 1-690): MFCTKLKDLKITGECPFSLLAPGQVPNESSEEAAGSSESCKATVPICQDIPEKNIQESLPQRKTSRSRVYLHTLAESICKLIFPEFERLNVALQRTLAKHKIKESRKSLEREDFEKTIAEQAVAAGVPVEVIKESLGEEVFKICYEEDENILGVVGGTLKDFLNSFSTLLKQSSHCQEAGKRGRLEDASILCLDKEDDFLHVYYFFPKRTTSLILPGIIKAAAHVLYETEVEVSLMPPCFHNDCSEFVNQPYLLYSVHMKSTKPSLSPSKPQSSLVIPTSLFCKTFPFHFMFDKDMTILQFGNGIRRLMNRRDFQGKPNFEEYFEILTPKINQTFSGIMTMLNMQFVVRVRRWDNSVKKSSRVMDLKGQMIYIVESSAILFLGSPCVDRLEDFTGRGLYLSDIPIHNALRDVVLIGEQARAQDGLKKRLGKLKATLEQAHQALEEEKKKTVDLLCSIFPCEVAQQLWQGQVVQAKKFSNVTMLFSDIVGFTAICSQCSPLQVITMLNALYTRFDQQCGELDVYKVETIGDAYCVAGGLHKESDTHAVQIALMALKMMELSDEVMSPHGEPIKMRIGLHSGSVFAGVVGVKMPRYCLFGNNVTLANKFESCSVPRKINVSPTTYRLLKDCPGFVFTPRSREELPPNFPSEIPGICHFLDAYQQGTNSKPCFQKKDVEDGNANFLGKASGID
T1 sequence (Q02153 1-619): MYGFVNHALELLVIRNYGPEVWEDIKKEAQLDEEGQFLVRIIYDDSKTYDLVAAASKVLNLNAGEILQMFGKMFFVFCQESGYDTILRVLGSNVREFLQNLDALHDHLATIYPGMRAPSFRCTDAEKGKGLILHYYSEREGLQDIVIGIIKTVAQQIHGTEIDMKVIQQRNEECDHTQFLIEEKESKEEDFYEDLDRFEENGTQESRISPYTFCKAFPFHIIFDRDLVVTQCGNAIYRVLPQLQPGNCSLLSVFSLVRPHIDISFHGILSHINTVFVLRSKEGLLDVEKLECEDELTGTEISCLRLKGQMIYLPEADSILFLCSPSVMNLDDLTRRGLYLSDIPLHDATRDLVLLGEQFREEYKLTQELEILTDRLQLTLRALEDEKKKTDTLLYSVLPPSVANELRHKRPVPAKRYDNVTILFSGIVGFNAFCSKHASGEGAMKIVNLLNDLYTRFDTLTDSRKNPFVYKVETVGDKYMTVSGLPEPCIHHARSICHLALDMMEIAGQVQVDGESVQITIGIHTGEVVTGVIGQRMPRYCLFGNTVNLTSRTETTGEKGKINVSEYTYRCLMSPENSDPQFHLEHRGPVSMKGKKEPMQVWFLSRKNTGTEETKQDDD
How it was run: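 cGMP was quantified by HTRF after 1 hr, 37° C exposure of thawed CHO-K1 cells expressing sGC α1/β1 to compound, with or without 1 μM DETA-NO. IBMX (0.5 mM) blocked cGMP breakdown, and DMSO was 2.5% final. Percent of standard Compound A's maximal cGMP was fitted (4P) for inflection point.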

Emax (sGC α1/β1 heterodimer) [%] | EC50 (sGC α1/β1 heterodimer) [nM] | Compound | Maximum peak decrease of systolic blood pressure (SBP) in SHR, Cat. ([1]; P.O. 0.3 mpk) | Maximum peak decrease of systolic blood pressure (SBP) in SHR, Cat. ([1]; P.O. 1.0 mpk) | Maximum peak decrease of systolic blood pressure (SBP) in SHR, Cat. ([1]; P.O. 3.0 mpk)
148 | 36 | Nc1nc(-c2cn3ccnc3c(CCC(F)(F)C(F)(F)F)n2)nc2c1C(c1ccc(Cl)cc1)(C1CC1)C(=O)N2 (stereo not drawn) [Example 235B, 4-amino-5-(4-chlorophenyl)-5-cyclopropyl-2-(8-(3,3,4,4,4-pentafluorobutyl)imidazo [1,2-a]pyrazin-6-yl)-5H-pyrrolo[2,3-d]pyrimidin-6(7H)-one] | B (Category B=SBP in SHRs 20-40 mmHg) | – | –
131 | 71 | CC1(c2ccc(Cl)cc2)C(=O)Nc2nc(-c3cn4ccnc4c(CCC(F)(F)C(F)(F)F)n3)nc(N)c21 (stereo not drawn) [Example 238A, 4-amino-5-(4-chlorophenyl)-5-methyl-2-(8-(3,3,4,4,4-pentafluorobutyl)imidazo [1,2-a]pyrazin-6-yl)-5H-pyrrolo[2,3-d]pyrimidin-6(7H)-one] | C (Category C=SBP in SHRs>40 mmHg) | – | –
97 | 53 | CCC1(c2ccc(F)cc2)C(=O)Nc2nc(-c3cn4ccnc4c(CCC(F)(F)C(F)(F)F)n3)nc(N)c21 (stereo not drawn) [Example 239A, 4-amino-5-ethyl-5-(4-fluorophenyl)-2-(8-(3,3,4,4,4-pentafluorobutyl)imidazo [1,2-a]pyrazin-6-yl)-5H-pyrrolo[2,3-d]pyrimidin-6(7H)-one] | B (Category B=SBP in SHRs 20-40 mmHg) | – | –
105 | 53 | CC1(c2ccc(C3CC3)nc2)C(=O)Nc2nc(-c3cn4ccnc4c(CCC(F)(F)C(F)(F)F)n3)nc(N)c21 (stereo not drawn) [Example 240B, 4-amino-5-(6-cyclopropylpyridin-3-yl)-5-methyl-2-(8-(3,3,4,4,4-pentafluorobutyl)imidazo [1,2-a]pyrazin-6-yl)-5H-pyrrolo[2,3-d]pyrimidin-6(7H)-one] | – | A (Category A=SBP in SHRs<20 mmHg) | –
106 | 208 | CCc1ccc(C2(C)C(=O)Nc3nc(-c4cn5ccnc5c(CCC(F)(F)C(F)(F)F)n4)nc(N)c32)cn1 (stereo not drawn) [Example 243B, 4-amino-5-(6-ethylpyridin-3-yl)-5-methyl-2-(8-(3,3,4,4,4-pentafluorobutyl)imidazo [1,2-a]pyrazin-6-yl)-5H-pyrrolo[2,3-d]pyrimidin-6(7H)-one] | – | A (Category A=SBP in SHRs<20 mmHg) | –
109 | 81 | CCOc1ccc(C2(C)C(=O)Nc3nc(-c4cn5ccnc5c(CCC(F)(F)C(F)(F)F)n4)nc(N)c32)cn1 (stereo not drawn) [Example 244B, 4-amino-5-(6-ethoxypyridin-3-yl)-5-methyl-2-(8-(3,3,4,4,4-pentafluorobutyl)imidazo [1,2-a]pyrazin-6-yl)-5H-pyrrolo[2,3-d]pyrimidin-6(7H)-one] | – | – | C (Category C=SBP in SHRs>40 mmHg)
118 | 77 | Nc1nc(-c2cn3ccnc3c(CCC(F)(F)C(F)(F)F)n2)nc2c1C(c1ccc(Cl)cn1)(C1CC1)C(=O)N2 (stereo not drawn) [Example 245B, 4-amino-5-(5-chloropyridin-2-yl)-5-cyclopropyl-2-(8-(3,3,4,4,4-pentafluorobutyl)imidazo [1,2-a]pyrazin-6-yl)-5H-pyrrolo[2,3-d]pyrimidin-6(7H)-one] | – | C (Category C=SBP in SHRs>40 mmHg) | –
114 | 128 | CC1(c2ccc(F)cn2)C(=O)Nc2nc(-c3cn4ccnc4c(CCC(F)(F)C(F)(F)F)n3)nc(N)c21 (stereo not drawn) [Example 246B, 4-amino-5-(5-fluoropyridin-2-yl)-5-methyl-2-(8-(3,3,4,4,4-pentafluorobutyl)imidazo [1,2-a]pyrazin-6-yl)-5H-pyrrolo[2,3-d]pyrimidin-6(7H)-one] | – | B (Category B=SBP in SHRs 20-40 mmHg) | –
